Test results published in article PMC10010340, “The Wnt Pathway Inhibitor RXC004 Blocks Tumor Growth and Reverses Immune Evasion in Wnt Ligand–dependent Cancer Models” (Cancer Research Communications, 2022).
Like-named read-outs stand apart in the source and are kept apart here.

Experiments:
SNU-1411 xenograft = SNU-1411 xenograft dose-response study; type: in vivo, mouse (NOD-SCID); conditions: day 19; 1.5 and 5 mg/kg once daily, 1.5 mg/kg twice daily continuous or 5-day on/2-day off
Method: To explore dose–response effects in vivo, SNU-1411 (1 × 10^7 cells) were implanted into NOD-SCID mice subcutaneously at Axis Bioservices. Animals were randomized into the indicated groups and oral dosing of RXC004 was initiated when tumors reached approximately 200 mm^3. Tumor volume measurements were taken at day 19, n ≥9 per group. Pharmacokinetic/pharmacodynamic analysis in SNU1411/NOD-SCID mice was performed in a separate study at Axis Biosciences, with tissue and plasma extracted for assessments after 7 days of RXC004 dosing. Tumor was divided into two sections; one section snap frozen and the other processed by FFPE. RXC004 levels were determined in snap frozen tumor and blood samples by LC/MS-MS. Expression analysis of the indicated genes was performed on snap frozen tumor as described above. Serial FFPE tumor sections were stained with H&E, anti-Ki67 (Abcam #Ab15580) or the dual mucin stain Alcian-blue/periodic acid shift (AB-PAS) at Histologix. IHC images were quantified using HALO software and modules (Indica Labs). The AB-PAS images were analyzed with the area quantification module on tumor area. […] The Ki67 images were analyzed with the multiplex IHC module and number of Ki67-positive cells were determined per mm^2 of total or differentiated tumor area.

[1] = pKa by fast UV (spectrometric) technique; type: physicochemical; conditions: 25°C; for pKa: methanol-water mixture
Method: pKas were determined using the fast UV (spectrometric) technique. Samples were titrated under methanol-water mixture between pH2.0 and pH12.0 at 30–15 μmol/L at 25°C. The ionic strength was 0.192 mol/L (KCl). Aqueous pKas were determined per Yasuda-Shedlovsky ([17]).

Plasma protein binding = type: in vitro ADME
Method: Plasma protein binding: Mouse, rat, dog, and human plasmas were obtained from TCS Biosciences Ltd and Sera Laboratories Ltd. A total of 20 μmol/L RXC004 in 10% plasma diluted with phosphate buffer was dialyzed against phosphate buffer for 18 hours at 37°C. The concentration of RXC004 each side of the dialysis plate was determined by LC/MS-MS. Results were corrected to 100% plasma.

Hepatocyte stability = type: in vitro ADME, mouse (CD1); conditions: Mouse, 1 μmol/L
Method: Metabolic stability: liver microsomes and hepatocytes from human, mouse (CD1), rat (Sprague Dawley) and dog (Beagle) were obtained from Invitrogen. RXC004 (1 μmol/L) was incubated at 37°C with microsomes (0.5 mg · mL^−1) or hepatocytes (0.5 × 10^6 cells · mL^−1). Aliquots were removed at 0–45 minutes and RXC004 concentrations determined by LC/MS-MS analysis. Half-life (T1/2) and intrinsic clearance (CLint) were calculated as described in ref. [18].

In vivo pharmacokinetics = experiment: In vivo pharmacokinetics; parameters: species or system rat (male Sprague Dawley); conditions: rat
Method: In vivo pharmacokinetics: RXC004 was dosed to male Sprague Dawley rats, male CD1 mice or dog (beagle) by intravenous and oral routes. Bioanalysis of blood and plasma samples was performed by LC/MS-MS using a Waters TQS or TQMS mass spectrometer. Pharmacokinetic information was derived using WinNonlin software (Certara).

CYP3A4 = molecular target: T1, CYP3A4 (Homo sapiens, UniProt P08684); experiment: Cytochrome P450 inhibition in human liver microsomes; type: in vitro ADME
T1 construct: from tissue; host or cells: human liver microsomes
Method: (§1) Cytochrome P450 (CYP) assays were performed using human liver microsomes incubated with P450 specific substrates as recommended by the FDA ([19]) at a concentration equivalent to Km in the presence of 0.03–30 μmol/L RXC004, or solvent control. Concentration of the metabolites was analyzed by LC/MS-MS.

CYP2C9 = molecular target: T2, CYP2C9 (Homo sapiens, UniProt P11712); experiment: as above; type: in vitro ADME
T2 construct: from tissue; host or cells: human liver microsomes
Method: as §1

CYP2C19 = molecular target: T3, CYP2C19 (Homo sapiens, UniProt P33261); experiment: as above; type: in vitro ADME
T3 construct: from tissue; host or cells: human liver microsomes
Method: as §1

CYP2D6 = molecular target: T4, CYP2D6 (Homo sapiens, UniProt P10635); experiment: as above; type: in vitro ADME
T4 construct: from tissue; host or cells: human liver microsomes
Method: as §1

CYP1A2 = molecular target: T5, CYP1A2 (Homo sapiens, UniProt P05177); experiment: as above; type: in vitro ADME
T5 construct: from tissue; host or cells: human liver microsomes
Method: as §1

[2] = male, Sprague Dawley, in vivo, po, 5 mg/kg p.o.

T3 sequence (P33261 whole entry): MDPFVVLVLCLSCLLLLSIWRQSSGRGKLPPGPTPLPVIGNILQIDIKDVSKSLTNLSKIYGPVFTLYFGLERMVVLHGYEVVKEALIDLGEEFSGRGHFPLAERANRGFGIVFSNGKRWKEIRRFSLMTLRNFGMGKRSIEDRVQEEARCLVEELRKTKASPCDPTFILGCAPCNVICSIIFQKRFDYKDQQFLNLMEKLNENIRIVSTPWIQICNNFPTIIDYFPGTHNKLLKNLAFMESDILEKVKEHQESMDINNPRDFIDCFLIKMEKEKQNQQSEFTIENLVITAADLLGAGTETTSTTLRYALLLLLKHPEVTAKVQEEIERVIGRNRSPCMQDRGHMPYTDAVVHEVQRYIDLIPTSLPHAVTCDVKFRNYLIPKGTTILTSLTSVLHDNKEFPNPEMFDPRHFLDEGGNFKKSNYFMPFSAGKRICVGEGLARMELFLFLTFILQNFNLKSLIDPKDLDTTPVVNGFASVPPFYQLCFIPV
T5 sequence (P05177 whole entry): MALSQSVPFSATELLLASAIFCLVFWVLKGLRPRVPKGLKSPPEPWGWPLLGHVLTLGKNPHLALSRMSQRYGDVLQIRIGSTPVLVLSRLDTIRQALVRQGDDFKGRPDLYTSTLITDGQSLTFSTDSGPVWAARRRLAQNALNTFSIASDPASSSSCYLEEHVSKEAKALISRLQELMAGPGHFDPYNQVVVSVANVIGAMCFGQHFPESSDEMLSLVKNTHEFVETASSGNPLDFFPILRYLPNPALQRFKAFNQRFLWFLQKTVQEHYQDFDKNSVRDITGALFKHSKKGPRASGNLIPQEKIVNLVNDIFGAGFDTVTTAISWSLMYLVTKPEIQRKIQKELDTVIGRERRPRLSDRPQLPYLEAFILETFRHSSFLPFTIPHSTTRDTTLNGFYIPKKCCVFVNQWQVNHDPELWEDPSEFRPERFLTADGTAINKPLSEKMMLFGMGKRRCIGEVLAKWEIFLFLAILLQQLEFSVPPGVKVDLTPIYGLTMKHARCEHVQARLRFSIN
T4 sequence (P10635 whole entry): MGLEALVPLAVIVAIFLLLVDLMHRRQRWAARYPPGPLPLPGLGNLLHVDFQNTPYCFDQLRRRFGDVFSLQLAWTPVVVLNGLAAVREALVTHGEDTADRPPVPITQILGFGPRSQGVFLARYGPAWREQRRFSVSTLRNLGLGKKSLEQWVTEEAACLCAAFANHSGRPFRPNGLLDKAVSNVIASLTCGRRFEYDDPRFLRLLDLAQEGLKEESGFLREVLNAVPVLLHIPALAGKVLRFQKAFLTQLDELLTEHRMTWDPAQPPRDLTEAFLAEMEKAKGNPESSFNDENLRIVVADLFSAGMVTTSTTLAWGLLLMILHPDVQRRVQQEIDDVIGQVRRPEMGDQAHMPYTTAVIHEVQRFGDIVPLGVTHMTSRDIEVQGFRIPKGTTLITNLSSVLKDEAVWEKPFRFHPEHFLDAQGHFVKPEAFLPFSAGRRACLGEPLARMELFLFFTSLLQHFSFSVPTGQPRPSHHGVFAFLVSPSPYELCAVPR
T2 sequence (P11712 whole entry): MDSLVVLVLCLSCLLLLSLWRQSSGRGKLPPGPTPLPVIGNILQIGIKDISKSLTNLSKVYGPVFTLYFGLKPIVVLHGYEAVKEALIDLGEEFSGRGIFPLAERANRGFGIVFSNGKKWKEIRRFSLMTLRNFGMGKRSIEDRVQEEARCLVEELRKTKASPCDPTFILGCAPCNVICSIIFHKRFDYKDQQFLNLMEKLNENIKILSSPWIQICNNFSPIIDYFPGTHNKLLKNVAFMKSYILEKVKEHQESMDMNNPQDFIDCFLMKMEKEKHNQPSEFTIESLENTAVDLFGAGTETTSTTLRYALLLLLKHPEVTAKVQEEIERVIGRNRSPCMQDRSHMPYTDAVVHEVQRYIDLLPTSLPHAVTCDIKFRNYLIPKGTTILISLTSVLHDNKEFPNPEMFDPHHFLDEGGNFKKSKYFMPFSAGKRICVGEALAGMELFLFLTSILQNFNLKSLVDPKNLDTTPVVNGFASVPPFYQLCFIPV
T1 sequence (P08684 whole entry): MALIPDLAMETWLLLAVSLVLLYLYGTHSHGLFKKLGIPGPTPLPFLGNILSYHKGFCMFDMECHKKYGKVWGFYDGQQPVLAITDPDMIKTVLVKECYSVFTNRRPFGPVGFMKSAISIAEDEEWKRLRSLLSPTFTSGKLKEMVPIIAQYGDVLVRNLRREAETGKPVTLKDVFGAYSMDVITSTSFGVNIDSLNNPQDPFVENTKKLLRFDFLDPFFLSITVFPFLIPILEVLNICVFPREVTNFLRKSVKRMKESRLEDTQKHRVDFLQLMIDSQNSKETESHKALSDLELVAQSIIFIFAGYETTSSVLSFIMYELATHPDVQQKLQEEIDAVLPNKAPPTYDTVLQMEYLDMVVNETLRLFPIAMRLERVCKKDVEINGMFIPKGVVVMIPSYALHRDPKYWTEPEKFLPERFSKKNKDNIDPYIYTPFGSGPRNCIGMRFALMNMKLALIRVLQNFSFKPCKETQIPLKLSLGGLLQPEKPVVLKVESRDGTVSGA

Cc1c(-c2ccnc(C(F)(F)F)c2)ncn1CC(=O)Nc1ccc(-c2cnccn2)cn1 [RXC004, 2-[5-methyl-4-[2-(trifluoromethyl)-4-pyridyl]imidazol-1-yl]-N-(5-pyrazin-2-yl-2-pyridyl)acetamide]
tumor volume (SNU-1411 xenograft): Significant reduction in tumor volume
pKa (most basic) [1]: 3.84
pKa ([1]; read-out: pKa (most acidic)): 11.2
pKa ([1]; read-out: pKa (most basic)): 3.8
Plasma protein binding (% free) (Plasma protein binding; Dog): 2.5 % free
Plasma protein binding (% free) (Plasma protein binding; Human): 4.2 % free
Plasma protein binding (% free) (Plasma protein binding; Mouse): 7.5 % free
Plasma protein binding (% free) (Plasma protein binding; Rat): 5.0 % free
Hepatocyte stability: CLint (Hepatocyte stability): <3.0 μL minute^−^1 · 10^6 cells^−^1
clearance (In vivo pharmacokinetics; male, Sprague Dawley, in vivo, intravenous, 2 mg/kg, dose i.v./p.o. 2/5 mg/kg): 0.348 L/h/kg
Vd (In vivo pharmacokinetics; male, Sprague Dawley, in vivo, intravenous, 2 mg/kg, dose i.v./p.o. 2/5 mg/kg, read-out: Vss): 0.64 L/kg
AUC(0-inf) (In vivo pharmacokinetics; [2]): 10.5 µM·h
Cmax (In vivo pharmacokinetics; [2]): 3.6 µM
concentration at 24 h (In vivo pharmacokinetics; male, Sprague Dawley, in vivo, po, 5 mg/kg p.o., read-out: C24h (p.o.)): 0.009 µM
half-life (In vivo pharmacokinetics; male, Sprague Dawley, in vivo, dose i.v./p.o. 2/5 mg/kg, read-out: T½ (converted)): 2.5 h
F (p.o.) (In vivo pharmacokinetics; dose i.v./p.o. 2/5 mg/kg): 31%
IC50 (CYP3A4): > 25 µM
IC50 (CYP2C9): > 25 µM
IC50 (CYP2C19): > 25 µM
IC50 (CYP2D6): > 25 µM
IC50 (CYP1A2): > 25 µM
